{"source": "patent US20100021379A1", "about": "“Chemical Antibodies for Immunotherapy and Imaging” (The Regents of the University of California, priority 2006, published 2010)", "tested_on": "K562 cells transfected with the alpha4 integrin subunit", "conditions": "ligand alone", "experimental": "K562 cells express the betal integrin subunit, but not the alpha4 integrin subunit. Staining was quantified by FLOW cytometry, which was performed on a Coulter® XL-MCL™ Flow Cytometer (Beckman Coulter, Inc.; Fullerton, Calif.). Cells were harvested and adjusted to a concentration of 1×10^6 cells/ml in TBS plus 1 mM CaCl2 and MnCl2. Fc-ligand antibody conjugates, Fc fragments, or ligands were then incubated at various concentrations with cells for 1 hour at room temperature. Cells were centrifuged at 1000 RPM for 5 minutes, liquid was aspirated, and cells were resuspended and spun down again. Cells were then incubated with a detecting agent, e.g., 1:1000 streptavidin-PE or 1:500 anti-human Fc-FITC (Sigma-Aldrich Co.) for 1 h at room temperature. Cells were washed two times as described above and then resuspended in PBS at a concentration of 1×10^6 cells/ml. Cellular fluorescence was visualized using a fluorescent microscope.", "data": [{"smiles": "Cc1ccccc1NC(=O)Nc1ccc(CC(=O)N[C@@H](CCCCNC(=O)/C=C/c2cccnc2)C(=O)N[C@@H](CCCC(=O)O)C(=O)NC2(C(=O)NCCOCCOCCNC(=O)CCC(=O)N[C@@H](Cc3ccc(O)c(O)c3)C(=O)NCCOCCOCCNC(=O)CCC(=O)NCCOCCOCCNC(=O)CCC(=O)N[C@@H](CCCCNC(=O)CCCC[C@@H]3SC[C@@H]4NC(=O)N[C@@H]43)C(N)=O)CCCCC2)cc1", "note": "[Ligand 2A-DOPA-Biotin]", "values": [{"measurement": "IC50", "value": 2, "unit": "pM"}]}]}
